Assays:
[1] = target: T1, CD73 (Homo sapiens (Human), UniProt P21589); test: MDA-MB-231 Cell Based CD73 Activity Assay (DMEM); details: MDA-MB-231-GFP cells, DMEM medium with 10% human plasma, 200 uM AMP
[2] = target: T1, CD73; type: biochemical; details: 1 mM NaH2PO4 in enzyme buffer, CD73 0.3 nM, AMP 15 uM

T1 sequence (P21589 27-574): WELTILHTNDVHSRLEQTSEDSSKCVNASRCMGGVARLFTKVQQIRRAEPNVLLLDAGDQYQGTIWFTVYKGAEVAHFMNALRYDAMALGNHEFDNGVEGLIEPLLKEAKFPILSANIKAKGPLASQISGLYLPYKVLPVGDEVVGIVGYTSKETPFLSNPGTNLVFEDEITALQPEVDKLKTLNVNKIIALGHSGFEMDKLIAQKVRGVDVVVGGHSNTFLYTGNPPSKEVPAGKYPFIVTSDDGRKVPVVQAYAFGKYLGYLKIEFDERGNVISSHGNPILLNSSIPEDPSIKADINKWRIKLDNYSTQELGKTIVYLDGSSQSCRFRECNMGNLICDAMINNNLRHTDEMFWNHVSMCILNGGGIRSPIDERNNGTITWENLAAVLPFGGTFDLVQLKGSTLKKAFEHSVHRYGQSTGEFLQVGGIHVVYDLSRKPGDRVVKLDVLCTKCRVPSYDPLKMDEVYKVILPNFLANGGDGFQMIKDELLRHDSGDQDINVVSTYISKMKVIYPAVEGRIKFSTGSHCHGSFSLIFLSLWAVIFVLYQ

SMILES	EC50 [1]	IC50 [2]
O=c1[nH]cc(-c2cc(N3CC(F)(F)C4(CC4)C3)n3ncnc3n2)c(=O)[nH]1 [Example 357, 5-(7-(7,7-difluoro-5-azaspiro[2.4]heptan-5-yl)-[1,2,4]triazolo[1,5-a]pyrimidin-5-yl)pyrimidine-2,4(1H,3H)-dione]	402 nM	> 250 nM
O=c1[nH]cc(-c2cc(N3CC(F)(F)C(F)(F)C3)n3nccc3n2)c(=O)[nH]1 [Example 358, 5-(7-(3,3,4,4-tetrafluoropyrrolidin-1-yl)pyrazolo[1,5-a]pyrimidin-5-yl)pyrimidine-2,4(1H,3H)-dione]	82.2 nM	27.8 nM
O=c1[nH]cc(-c2cc([C@H]3C[C@@H]3c3ncc(Br)cn3)c3nccn3n2)c(=O)[nH]1 [Example 380, 5-(8-((1S,2S)-2-(5-bromopyrimidin-2-yl)cyclopropyl)imidazo[1,2-b]pyridazin-6-yl)pyrimidine-2,4(1H,3H)-dione]	14.3 nM	3.43 nM
O=C1N(CC(F)(F)F)c2cc([C@H]3C[C@@H]3c3cc(-c4c[nH]c(=O)[nH]c4=O)nn4c(F)cnc34)ccc2C12CC2 [Example 381, 5-(3-fluoro-8-((1S,2S)-2-(2′-oxo-1′-(2,2,2-trifluoroethyl)spiro[cyclopropane-1,3′-indolin]-6′-yl)cyclopropyl)imidazo[1,2-b]pyridazin-6-yl)pyrimidine-2,4(1H,3H)-dione]	0.16 nM	0.69 nM
O=C1N(CC(F)(F)F)c2cc([C@H]3C[C@@H]3c3cc(-c4c[nH]c(=O)[nH]c4=O)nn4ccnc34)ccc2C12CCC2 [Example 384, 5-(8-((1S,2S)-2-(2′-oxo-1′-(2,2,2-trifluoroethyl)spiro[cyclobutane-1,3′-indolin]-6′-yl)cyclopropyl)imidazo[1,2-b]pyridazin-6-yl)pyrimidine-2,4(1H,3H)-dione]	0.24 nM	1.27 nM
O=C1N(CC(F)(F)F)c2cc([C@H]3C[C@@H]3c3cc(-c4c[nH]c(=O)[nH]c4=O)nn4c(F)cnc34)ccc2C12CCCC2 [Example 385, 5-(3-fluoro-8-((1S,2S)-2-(2′-oxo-1′-(2,2,2-trifluoroethyl)spiro[cyclopentane-1,3′-indolin]-6′-yl)cyclopropyl)imidazo[1,2-b]pyridazin-6-yl)pyrimidine-2,4(1H,3H)-dione]	0.25 nM	0.68 nM
O=C1N(CC(F)(F)F)c2cc([C@H]3C[C@@H]3c3cc(-c4c[nH]c(=O)[nH]c4=O)nn4c(F)cnc34)ccc2C12CCC2 [Example 386, 5-(3-fluoro-8-((1S,2S)-2-(2′-oxo-1′-(2,2,2-trifluoroethyl)spiro[cyclobutane-1,3′-indolin]-6′-yl)cyclopropyl)imidazo[1,2-b]pyridazin-6-yl)pyrimidine-2,4(1H,3H)-dione]	0.28 nM	0.92 nM
O=C1N(CC(F)(F)F)c2cc([C@H]3C[C@@H]3c3cc(-c4c[nH]c(=O)[nH]c4=O)nn4ccnc34)ccc2C12CCCC2 [Example 387, 5-(8-((1S,2S)-2-(2′-oxo-1′-(2,2,2-trifluoroethyl)spiro[cyclopentane-1,3′-indolin]-6′-yl)cyclopropyl)imidazo[1,2-b]pyridazin-6-yl)pyrimidine-2,4(1H,3H)-dione]	0.36 nM	1.27 nM
O=C1N(CC(F)(F)F)c2cc([C@H]3C[C@@H]3c3cc(-c4c[nH]c(=O)[nH]c4=O)nn4c(Cl)cnc34)ccc2C12CC2 [Example 388, 5-(3-chloro-8-((1S,2S)-2-(2′-oxo-1′-(2,2,2-trifluoroethyl)spiro[cyclopropane-1,3′-indolin]-6′-yl)cyclopropyl)imidazo[1,2-b]pyridazin-6-yl)pyrimidine-2,4(1H,3H)-dione]	0.21 nM	0.41 nM
O=c1[nH]cc(-c2cc([C@H]3C[C@@H]3c3cc4c(cn3)c(F)cn4CC(F)(F)F)c3nccn3n2)c(=O)[nH]1 [Example 392, 5-(8-((1S,2S)-2-(3-fluoro-1-(2,2,2-trifluoroethyl)-1H-pyrrolo[3,2-c]pyridin-6-yl)cyclopropyl)imidazo[1,2-b]pyridazin-6-yl)pyrimidine-2,4(1H,3H)-dione]	0.34 nM	1.25 nM
O=c1[nH]cc(-c2cc([C@H]3C[C@@H]3c3ccc4c(F)nn(CC(F)(F)F)c4c3)c3nccn3n2)c(=O)[nH]1 [Example 393, 5-(8-((1S,2S)-2-(3-fluoro-1-(2,2,2-trifluoroethyl)-1H-indazol-6-yl)cyclopropyl)imidazo[1,2-b]pyridazin-6-yl)pyrimidine-2,4(1H,3H)-dione]	0.16 nM	0.74 nM
O=c1[nH]cc(-c2cc([C@H]3C[C@@H]3c3cc(C(F)(F)F)c4cccnc4c3)c3nccn3n2)c(=O)[nH]1 [Example 394, 5-(8-((1S,2S)-2-(5-(trifluoromethyl)quinolin-7-yl)cyclopropyl)imidazo[1,2-b]pyridazin-6-yl)pyrimidine-2,4(1H,3H)-dione]	> 250 nM	5.94 nM
O=c1[nH]cc(-c2cc([C@H]3C[C@@H]3c3cnc4c(C(F)(F)F)cccc4c3)c3nccn3n2)c(=O)[nH]1 [Example 395, 5-(8-((1S,2S)-2-(8-(trifluoromethyl)quinolin-3-yl)cyclopropyl)imidazo[1,2-b]pyridazin-6-yl)pyrimidine-2,4(1H,3H)-dione]	29.9 nM	2.1 nM
O=c1[nH]cc(-c2cc(N3CC(F)(C(F)(F)F)C3)c3nccn3n2)c(=O)[nH]1 [Example 397, 5-(8-(3-fluoro-3-(trifluoromethyl)azetidin-1-yl)imidazo[1,2-b]pyridazin-6-yl)pyrimidine-2,4(1H,3H)-dione]	22.5 nM	15.3 nM
O=c1[nH]cc(-c2cc(N3CC4(CCC4)C3)c3nccn3n2)c(=O)[nH]1 [Example 398, 5-(8-(2-azaspiro[3.3]heptan-2-yl)imidazo[1,2-b]pyridazin-6-yl)pyrimidine-2,4(1H,3H)-dione]	29.5 nM	17.1 nM
CC1(C(F)F)CN(c2cc(-c3c[nH]c(=O)[nH]c3=O)nn3ccnc23)C1 [Example 399, 5-(8-(3-(difluoromethyl)-3-methylazetidin-1-yl)imidazo[1,2-b]pyridazin-6-yl)pyrimidine-2,4(1H,3H)-dione]	27 nM	12.2 nM
O=c1[nH]cc(-c2cc(N3CC(C4CC4(F)F)C3)c3nccn3n2)c(=O)[nH]1 (centres unmarked) [Example 400, 5-(8-(3-(2,2-difluorocyclopropyl)azetidin-1-yl)imidazo[1,2-b]pyridazin-6-yl)pyrimidine-2,4(1H,3H)-dione]	547 nM	207 nM
O=c1[nH]cc(-c2cc(N3CC(C4CCC4)C3)c3nccn3n2)c(=O)[nH]1 [Example 401, 5-(8-(3-cyclobutylazetidin-1-yl)imidazo[1,2-b]pyridazin-6-yl)pyrimidine-2,4(1H,3H)-dione]	53 nM	12.6 nM
O=c1[nH]cc(-c2cc(N3CC(F)(C(F)(F)F)C3)n3ncnc3n2)c(=O)[nH]1 [Example 402, 5-(7-(3-fluoro-3-(trifluoromethyl)azetidin-1-yl)-[1,2,4]triazolo[1,5-a]pyrimidin-5-yl)pyrimidine-2,4(1H,3H)-dione]	136 nM	53.2 nM
O=c1[nH]cc(-c2cc(N3CC(C(F)F)C3)c3nccn3n2)c(=O)[nH]1 [Example 403, 5-(8-(3-(difluoromethyl)azetidin-1-yl)imidazo[1,2-b]pyridazin-6-yl)pyrimidine-2,4(1H,3H)-dione]	28.5 nM	8.94 nM
O=c1[nH]cc(-c2cc(N3CC(C4CC4)C3)c3nccn3n2)c(=O)[nH]1 [Example 404, 5-(8-(3-cyclopropylazetidin-1-yl)imidazo[1,2-b]pyridazin-6-yl)pyrimidine-2,4(1H,3H)-dione]	77.6 nM	22.9 nM
O=c1[nH]cc(-c2cc(N3CC4(CCC4(F)F)C3)c3nccn3n2)c(=O)[nH]1 [Example 405, 5-(8-(5,5-difluoro-2-azaspiro[3.3]heptan-2-yl)imidazo[1,2-b]pyridazin-6-yl)pyrimidine-2,4(1H,3H)-dione]	21.6 nM	8.3 nM
O=c1[nH]cc(-c2cc(N3CC4(C3)CC4(F)F)c3nccn3n2)c(=O)[nH]1 [Example 406, 5-(8-(1,1-difluoro-5-azaspiro[2.3]hexan-5-yl)imidazo[1,2-b]pyridazin-6-yl)pyrimidine-2,4(1H,3H)-dione]	98.2 nM	25.6 nM
CC(C)(F)C1CN(c2cc(-c3c[nH]c(=O)[nH]c3=O)nn3ccnc23)C1 [Example 409, 5-(8-(3-(2-fluoropropan-2-yl)azetidin-1-yl)imidazo[1,2-b]pyridazin-6-yl)pyrimidine-2,4(1H,3H)-dione]	37.8 nM	10.7 nM
O=c1[nH]cc(-c2cc(C3CCOCC3)c3nccn3n2)c(=O)[nH]1 [Example 410, 5-(8-(tetrahydro-2H-pyran-4-yl)imidazo[1,2-b]pyridazin-6-yl)pyrimidine-2,4(1H,3H)-dione]	928 nM	817 nM
N#Cc1ccc([C@H]2C[C@@H]2c2cc(-c3c[nH]c(=O)[nH]c3=O)nn3c(F)cnc23)cc1F [Example 415, 4-((1S,2S)-2-(6-(2,4-dioxo-1,2,3,4-tetrahydropyrimidin-5-yl)-3-fluoroimidazo[1,2-b]pyridazin-8-yl)cyclopropyl)-2-fluorobenzonitrile]	3.93 nM	0.79 nM
O=c1[nH]cc(-c2cc([C@H]3C[C@@H]3c3ccc(C(F)F)cc3)c3nccn3n2)c(=O)[nH]1 [Example 418, 5-(8-((1S,2S)-2-(4-(difluoromethyl)phenyl)cyclopropyl)imidazo[1,2-b]pyridazin-6-yl)pyrimidine-2,4(1H,3H)-dione]	4.71 nM	0.96 nM
O=c1[nH]cc(-c2cc([C@H]3C[C@@H]3c3ccc(C(F)F)cc3)c3ncc(F)n3n2)c(=O)[nH]1 [Example 419, 5-(8-((1S,2S)-2-(4-(difluoromethyl)phenyl)cyclopropyl)-3-fluoroimidazo[1,2-b]pyridazin-6-yl)pyrimidine-2,4(1H,3H)-dione]	8.9 nM	1.23 nM

From patent publication US20240043427A1 (Gilead Sciences, Inc., priority 2020, published 2024)
